Test results: PubChem BioAssay (NCI)
Where “and” joins values, the source holds several entries; their conditions need not be identical. Identical values can stand only once.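 The compound was tested at five concentrations on cells cultured in 96-well plates, with a 48-hour exposure period. Abbreviation: GI50, concentration required for 50% inhibition of growth. TGI is the concentration that stops growth completely.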

Assays:
Experiment in all cases: DTP human tumour cell line panel, 48 h
[1] = tested on: SK-OV-3 ovarian
[2] = tested on: NCI-H460 lung
[3] = tested on: A498 renal
[4] = tested on: SW-620 colon
[5] = tested on: EKVX NSCLC
[6] = tested on: UACC-257 melanoma
[7] = tested on: K-562 leukemia
[8] = tested on: TK-10 renal
[9] = tested on: ACHN renal
[10] = tested on: OVCAR-5 ovarian

Row | SMILES | TGI [1] | TGI [2] | TGI [3] | TGI [4] | TGI [5] | TGI [6] | TGI [7] | TGI [8] | TGI [9] | TGI [10] | GI50 [1] | GI50 [2] | GI50 [3] | GI50 [4] | GI50 [5] | GI50 [6] | GI50 [7] | GI50 [8] | GI50 [9] | GI50 [10]
1 | O=C1OC(=O)C([Se]c2ccccc2)=C1[Se]c1ccccc1 | > 100 µM | > 100 µM | > 100 µM | > 100 µM | > 100 µM | > 100 µM | > 100 µM | > 100 µM | > 100 µM | > 100 µM | – | – | – | – | – | – | – | – | – | –
2 | O=C1C(=O)C2(CC1S(=O)(=O)c1ccccc1)c1ccccc1-c1ccccc12 (stereo not given) | > 100 µM | 36.2 µM | 34.8 µM | 85.1 µM | 72.8 µM | 33 µM | 59.3 µM | 68.9 µM | 92 µM | 46.5 µM | – | – | – | – | – | – | – | – | – | –
3 | O=C(O)c1ccccc1NCn1c(=S)sc2ccccc21 | > 100 µM | 48.5 µM | > 100 µM | > 100 µM | > 100 µM | > 100 µM | > 100 µM | > 100 µM | > 100 µM | > 100 µM | – | – | – | – | – | – | – | – | – | –
4 | COc1cc2ncnc(Oc3cccc(NC(=O)Nc4cc(C(C)(C)C(F)(F)F)on4)c3)c2cc1OC | 3.52 µM and 4.82 µM | 13.9 µM and > 10 µM | 1.36 µM and 3.62 µM | 20.8 µM and > 10 µM | > 10 µM | 1.08 µM and 3.58 µM | 25.9 µM and > 10 µM | 4.67 µM and 4.32 µM | 12.9 µM and > 10 µM | 10.5 µM and > 10 µM | 0.612 µM and 0.962 µM | 2.2 µM and 3.28 µM | 0.322 µM and 1.05 µM | 1.21 µM and 1.6 µM | 1.52 µM | 0.132 µM and 0.235 µM | 0.0153 µM and 0.0146 µM | 0.948 µM and 0.82 µM | 0.438 µM and 0.598 µM | 1.1 µM and 1.01 µM
5 | C=C1CC[C@H]2C(C)=CC[C@H]3C(=C)C(=O)O[C@@H]3[C@@H]12 | > 100 µM | > 100 µM | > 100 µM | > 100 µM | > 100 µM | > 100 µM | > 100 µM | > 100 µM | > 100 µM | > 100 µM | – | – | – | – | – | – | – | – | – | –
6 | O=C(O)CSc1n[nH]c(-c2ccco2)n1 | > 100 µM | > 100 µM | > 100 µM | > 100 µM | > 100 µM | > 100 µM | > 100 µM | > 100 µM | > 100 µM | > 100 µM | – | – | – | – | – | – | – | – | – | –
7 | COc1ccc2c(c1)C(=O)c1c-2c(OCCN(C)C)nc2cc(OC)c(OC)cc12 | > 100 µM | 15.3 µM | 99.1 µM | 16.9 µM | > 100 µM | > 100 µM | 30.9 µM | 27.5 µM | 19.3 µM | 55.9 µM | 18.9 µM | 1.22 µM | 13.2 µM | 0.476 µM | 22.6 µM | > 100 µM | 5.04 µM | 13.9 µM | 5.21 µM | 23.7 µM
8 | C[C@@H]1CCc2ncc(F)cc2[C@H]2CCCN2c2ccn3ncc(c3n2)C(=O)N1 | > 100 µM | > 100 µM | 42.2 µM | > 100 µM | > 100 µM | > 100 µM | > 100 µM | > 100 µM | > 100 µM | > 100 µM | 91.7 µM | > 100 µM | 12.9 µM | > 100 µM | 48.8 µM | > 100 µM | 29.8 µM | 81.7 µM | 65.9 µM | > 100 µM
9 | OCC(O)C(O)C(O)C(O)c1nnc2c(-c3ccccc3)nc3ccccc3n12 (stereo not given) | > 100 µM | > 100 µM | > 100 µM | > 100 µM | > 100 µM | > 100 µM | > 100 µM | > 100 µM | > 100 µM | > 100 µM | > 100 µM | > 100 µM | 38.2 µM | > 100 µM | > 100 µM | > 100 µM | 78.3 µM | 29.2 µM | > 100 µM | > 100 µM
10 | Cc1cc(S(N)(=O)=O)c(S/C(=N\NS(=O)(=O)c2ccccc2)c2ccc(Cl)cc2)cc1Cl | > 100 µM | > 100 µM | > 100 µM | > 100 µM | > 100 µM | > 100 µM | > 100 µM | > 100 µM | > 100 µM | > 100 µM | > 100 µM | 65.4 µM | 43 µM | > 100 µM | > 100 µM | 54.5 µM | 59 µM | > 100 µM | > 100 µM | > 100 µM
11 | COc1cccc(-c2nc3sccn3c2-c2ccnc(NCCCNS(=O)(=O)c3ccccc3)c2)c1 | > 100 µM | > 100 µM | > 100 µM | > 100 µM | > 100 µM | > 100 µM | > 100 µM | > 100 µM | > 100 µM | > 100 µM | 5.43 µM | 3.35 µM | 2.92 µM | 3.81 µM | 3.68 µM | 3.57 µM | 2.57 µM | 4.27 µM | 2.66 µM | 5.45 µM
12 | CCCCCC[C@H]1C(=O)O[C@H](C)[C@H](NC(=O)c2cccc(NC=O)c2OC)C(=O)O[C@@H](C)[C@@H]1OC(=O)CCC (tested in a mixture with another compound) | 66.1 µM | 25.5 µM | 29.7 µM | 72.3 µM | 24.2 µM | 11.9 µM | 33.9 µM | 29.6 µM | 23.1 µM | 47.6 µM | 24.2 µM | 4.89 µM | 10 µM | 13 µM | 6 µM | 2.81 µM | 4.99 µM | 13.3 µM | 10.1 µM | 20.9 µM
